Earlier results, collected in US20070026026A1 (priority 2005, published 2007).

Assays:
[1] = room temperature; cited from earlier work
[2] = cited from earlier work
AT1 receptor = target: T1, AT1 receptor (Homo sapiens, UniProt P30556); conditions: cited from earlier work
T1 sequence (P30556 1-359): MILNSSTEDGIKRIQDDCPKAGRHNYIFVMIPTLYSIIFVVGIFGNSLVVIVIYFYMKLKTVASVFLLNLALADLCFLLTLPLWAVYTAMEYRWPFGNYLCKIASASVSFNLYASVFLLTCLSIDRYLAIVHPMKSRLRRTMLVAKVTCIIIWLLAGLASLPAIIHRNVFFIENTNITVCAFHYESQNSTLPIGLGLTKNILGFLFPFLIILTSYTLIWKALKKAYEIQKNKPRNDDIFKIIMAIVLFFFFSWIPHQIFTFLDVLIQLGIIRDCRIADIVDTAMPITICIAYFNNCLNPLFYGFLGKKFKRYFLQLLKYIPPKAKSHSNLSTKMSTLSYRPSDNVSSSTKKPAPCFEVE

cytochrome P450 2C9 = cytochrome P450 2C9 (Homo sapiens, UniProt P11712); conditions: in vitro studies; cited from earlier work
Sequence of cytochrome P450 2C9 (P11712 whole entry): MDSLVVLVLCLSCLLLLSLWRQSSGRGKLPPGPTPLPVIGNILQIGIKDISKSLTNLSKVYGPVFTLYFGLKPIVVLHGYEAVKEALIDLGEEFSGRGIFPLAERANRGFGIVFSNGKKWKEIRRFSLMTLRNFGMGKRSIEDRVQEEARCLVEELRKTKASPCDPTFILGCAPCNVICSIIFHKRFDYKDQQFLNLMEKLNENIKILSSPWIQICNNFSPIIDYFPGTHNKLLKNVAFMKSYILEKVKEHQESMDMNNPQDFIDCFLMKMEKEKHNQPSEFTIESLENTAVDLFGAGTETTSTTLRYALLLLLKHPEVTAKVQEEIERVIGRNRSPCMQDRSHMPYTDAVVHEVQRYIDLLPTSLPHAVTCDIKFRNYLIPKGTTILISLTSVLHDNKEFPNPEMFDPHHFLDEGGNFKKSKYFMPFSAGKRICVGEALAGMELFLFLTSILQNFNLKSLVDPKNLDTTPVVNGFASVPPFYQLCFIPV

cytochrome P450 3A4 = cytochrome P450 3A4 (Homo sapiens, UniProt P08684); conditions: in vitro studies; cited from earlier work
Sequence of cytochrome P450 3A4 (P08684 whole entry): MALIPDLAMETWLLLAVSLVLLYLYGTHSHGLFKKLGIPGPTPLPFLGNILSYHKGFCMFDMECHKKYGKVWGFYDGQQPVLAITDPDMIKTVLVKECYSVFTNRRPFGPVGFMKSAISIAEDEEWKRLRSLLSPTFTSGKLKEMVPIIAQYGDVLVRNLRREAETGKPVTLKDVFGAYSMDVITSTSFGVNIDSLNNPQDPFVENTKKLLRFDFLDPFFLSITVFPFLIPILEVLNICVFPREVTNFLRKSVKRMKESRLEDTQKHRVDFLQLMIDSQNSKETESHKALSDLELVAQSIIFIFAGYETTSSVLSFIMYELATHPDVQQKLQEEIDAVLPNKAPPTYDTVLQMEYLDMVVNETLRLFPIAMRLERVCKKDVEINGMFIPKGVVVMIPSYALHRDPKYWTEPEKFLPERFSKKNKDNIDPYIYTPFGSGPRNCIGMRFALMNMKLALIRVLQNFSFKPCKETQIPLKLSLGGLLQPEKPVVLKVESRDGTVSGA

## CCCCc1nc(Cl)c(CO)n1Cc1ccc(-c2ccccc2-c2nnn[n-]2)cc1.[K+] [Form I]
[1]
  thermodynamic stability of the polymorph: more thermodynamically stable polymorph

## CCCCc1nc(Cl)c(CO)n1Cc1ccc(-c2ccccc2-c2nn[nH]n2)cc1 [losartan]
[2]; in vivo
  terminal half-life: about 2 hours
[2]; oral administration
  maximum plasma concentrations of losartan and its active metabolite compared: approximately equal
  systemic bioavailability: approximately 33%
  time to mean peak concentrations: 1 h
[2]; oral losartan doses up to 200 mg
  pharmacokinetics, dose dependence: linear
[2]; with a meal
  effect of a meal on AUC (decrease): about 10%
  effect of a meal on Cmax: decreases
  effect of a meal on absorption: slows absorption
AT1 receptor
  partial agonist activity at the AT1 receptor: do not exhibit any partial agonist activity
Cytochrome P450 2C9
  involvement in the biotransformation of losartan to its metabolites: involved
Cytochrome P450 3A4
  involvement in the biotransformation of losartan to its metabolites: involved
